Experimental data as given in patent publication US9884818B2, “Sulphamoylpyrrolamide derivatives and the use thereof as medicaments for the treatment of hepatitis B” (Janssen Sciences Ireland UC, priority 2013, dated 2018).

Legend:
HBV [1] = assay: Anti-HBV activity, HepG2.117 inducibly HBV producing cell line (Tet-off), intracellular HBV DNA by realtime PCR; type: cell-based; details: Hepatitis B virus, HepG2.117, 72 h, HepG2.117 cells, 3 days of treatment, intracellular HBV DNA; read-out: HepG2 117 EC50
HBV [2] = assay: Anti-HBV activity, HepG2.2.15 stable transfected cell line, HBV DNA from secreted virions by realtime PCR; type: cell-based; details: Hepatitis B virus, HepG2.2.15, 144 h, HepG2.2.15 cells, 6 days of treatment, HBV DNA from secreted virions; read-out: HepG2 2.15 EC50
[3] = Cytotoxicity in HepG2 cells, Resazurin viability assay; details: human, HepG2 cells, HepG2 4 days CC50 (μM), incubated for 4 days, Resazurin assay

Row | SMILES | EC50 (HBV [1]) | EC50 (HBV [2]) | CC50 at 4 days [3]
1 | Cc1c(S(=O)(=O)N[C@H](C)C(F)(F)F)cc(C(=O)Nc2ccc(F)c(Cl)c2)n1C [Compound 138, N-(3-Chloro-4-fluorophenyl)-1,5-dimethyl-4-{[(1R)-2,2,2-trifluoro-1-methylethyl]sulfamoyl}-1H-pyrrole-2-carboxamide] | 30 nM | 100 nM | > 25 µM
2 | Cc1c(S(=O)(=O)N[C@H](C)C(F)(F)F)cc(C(=O)Nc2ccc(F)c(F)c2)n1C [Compound 139, N-(3,4-Difluorophenyl)-1,5-dimethyl-4-{[(1R)-2,2,2-trifluoro-1-methylethyl]sulfamoyl}-1H-pyrrole-2-carboxamide] | 30 nM | 50 nM | > 25 µM
3 | Cc1c(S(=O)(=O)N[C@H](C)C(F)(F)F)cc(C(=O)Nc2ccc(F)c(C#N)c2)n1C [Compound 140, N-(3-Cyano-4-fluorophenyl)-1,5-dimethyl-4-{[(1R)-2,2,2-trifluoro-1-methylethyl]sulfamoyl}-1H-pyrrole-2-carboxamide] | 60 nM | 100 nM | > 25 µM
4 | Cc1c(S(=O)(=O)N[C@H](C)C(F)(F)F)cc(C(=O)Nc2ccc(F)c(Br)c2)n1C [Compound 141, N-(3-Bromo-4-fluorophenyl)-1,5-dimethyl-4-{[(1R)-2,2,2-trifluoro-1-methylethyl]sulfamoyl}-1H-pyrrole-2-carboxamide] | 150 nM | 40 nM | > 25 µM
5 | Cc1c(S(=O)(=O)N[C@H](C)C(F)(F)F)cc(C(=O)Nc2ccc(F)c(C(F)(F)F)c2)n1C [Compound 142, N-[4-Fluoro-3-(trifluoromethyl)phenyl]-1,5-dimethyl-4-{[(1R)-2,2,2-trifluoro-1-methylethyl]sulfamoyl}-1H-pyrrole-2-carboxamide] | 420 nM | 150 nM | > 25 µM
6 | Cc1c(S(=O)(=O)N[C@H](C)C(F)(F)F)cc(C(=O)Nc2ccc(F)c(Cl)c2F)n1C [Compound 143, N-(3-Chloro-2,4-difluorophenyl)-1,5-dimethyl-4-{[(1R)-2,2,2-trifluoro-1-methylethyl]sulfamoyl}-1H-pyrrole-2-carboxamide] | 150 nM | 50 nM | > 25 µM
7 | Cc1c(S(=O)(=O)N[C@H](C)C(F)(F)F)cn(C)c1C(=O)Nc1ccc(F)c(F)c1 [Compound 144, N-(3,4-Difluorophenyl)-1,3-dimethyl-4-{[(1R)-2,2,2-trifluoro-1-methylethyl]sulfamoyl}-1H-pyrrole-2-carboxamide] | 70 nM | 50 nM | > 25 µM
8 | Cc1c(S(=O)(=O)N[C@H](C)C(F)(F)F)cn(C)c1C(=O)Nc1ccc(F)c(Cl)c1 [Compound 145, N-(3-Chloro-4-fluorophenyl)-1,3-dimethyl-4-{[(1R)-2,2,2-trifluoro-1-methylethyl]sulfamoyl}-1H-pyrrole-2-carboxamide] | 30 nM | 40 nM | > 25 µM
9 | Cc1c(S(=O)(=O)N[C@@H](C)C(F)(F)F)cn(C)c1C(=O)Nc1ccc(F)c(F)c1 [Compound 146, N-(3,4-Difluorophenyl)-1,3-dimethyl-4-{[(1S)-2,2,2-trifluoro-1-methylethyl]sulfamoyl}-1H-pyrrole-2-carboxamide] | 40 nM | 70 nM | > 25 µM
10 | Cc1c(S(=O)(=O)N[C@@H](C)C(F)(F)F)cn(C)c1C(=O)Nc1ccc(F)c(Cl)c1 [Compound 147, N-(3-Chloro-4-fluorophenyl)-1,3-dimethyl-4-{[(1S)-2,2,2-trifluoro-1-methylethyl]sulfamoyl}-1H-pyrrole-2-carboxamide] | 40 nM | 80 nM | > 25 µM
11 | Cc1c(S(=O)(=O)NC2(C)COC2)cn(C)c1C(=O)Nc1ccc(F)c(F)c1 [Compound 148, N-(3,4-Difluorophenyl)-1,3-dimethyl-4-[(3-methyloxetan-3-yl)sulfamoyl]-1H-pyrrole-2-carboxamide] | 70 nM | 110 nM | > 25 µM
12 | Cc1c(S(=O)(=O)NC2(C)COC2)cn(C)c1C(=O)Nc1ccc(F)c(Cl)c1 [Compound 149, N-(3-Chloro-4-fluorophenyl)-1,3-dimethyl-4-[(3-methyloxetan-3-yl)sulfamoyl]-1H-pyrrole-2-carboxamide] | 30 nM | 40 nM | > 25 µM
13 | Cc1c(S(=O)(=O)N[C@H](C)C(F)(F)F)cn(C)c1C(=O)Nc1ccc(F)c(C#N)c1 [Compound 150, N-(3-Cyano-4-fluorophenyl)-1,3-dimethyl-4-{[(1R)-2,2,2-trifluoro-1-methylethyl]sulfamoyl}-1H-pyrrole-2-carboxamide] | 60 nM | 90 nM | > 25 µM
14 | Cc1c(S(=O)(=O)N[C@@H](C)C(F)(F)F)cn(C)c1C(=O)Nc1ccc(F)c(C#N)c1 [Compound 151, N-(3-Cyano-4-fluorophenyl)-1,3-dimethyl-4-{[(1S)-2,2,2-trifluoro-1-methylethyl]sulfamoyl}-1H-pyrrole-2-carboxamide] | 70 nM | 80 nM | > 25 µM
15 | Cc1c(S(=O)(=O)NC2(C)COC2)cn(C)c1C(=O)Nc1ccc(F)c(C#N)c1 [Compound 152, N-3-Cyano-4-fluoromethyl-4-[(3-methyloxetan-3-yl)sulfamoyl]-1H-pyrrole-2-carboxamide] | 80 nM | 240 nM | > 25 µM
16 | Cc1c(S(=O)(=O)N[C@H](C)C(F)(F)F)cn(C)c1C(=O)Nc1ccc(F)c(C(F)(F)F)c1 [Compound 153, N-[4-Fluoro-3-(trifluoromethyl)phenyl]-1,3-dimethyl-4-{[(1R)-2,2,2-trifluoro-1-methylethyl]sulfamoyl}-1H-pyrrole-2-carboxamide] | 150 nM | 270 nM | > 25 µM
17 | C[C@H](NS(=O)(=O)c1cc(C(=O)Nc2ccc(F)c(F)c2F)n(C)c1)C(F)(F)F [Compound 154, 1-Methyl-4-{[(1S)-2,2,2-trifluoro-1-methylethyl]sulfamoyl}-N-(2,3,4-trifluorophenyl)-1H-pyrrole-2-carboxamide] | 80 nM | 130 nM | > 25 µM
18 | C[C@H](NS(=O)(=O)c1cc(C(=O)Nc2ccc(F)c(Br)c2F)n(C)c1)C(F)(F)F [Compound 155, N-(3-Bromo-2,4-difluorophenyl)-1-methyl-4-{[(1S)-2,2,2-trifluoro-1-methylethyl]sulfamoyl}-1H-pyrrole-2-carboxamide] | 50 nM | 30 nM | > 25 µM
19 | C[C@H](NS(=O)(=O)c1cc(C(=O)Nc2ccc(F)c(Cl)c2F)n(C)c1)C(F)(F)F [Compound 156, N-(3-Chloro-2,4-difluorophenyl)-1-methyl-4-{[(1S)-2,2,2-trifluoro-1-methylethyl]sulfamoyl}-1H-pyrrole-2-carboxamide] | 30 nM | 40 nM | > 25 µM
20 | C[C@@H](NS(=O)(=O)c1cc(C(=O)Nc2ccc(F)c(C#N)c2)n(C)c1)C(F)(F)F [Compound 157, N-(3-cyano-4-fluoro-phenyl)-1-methyl-4-[[(1R)-2,2,2-trifluoro-1-methylethyl]sulfamoyl]pyrrole-2-carboxamide] | 50 nM | 80 nM | > 25 µM
21 | C[C@@H](NS(=O)(=O)c1cc(C(=O)Nc2cccc(C#N)c2)n(C)c1)C(F)(F)F [Compound 158, N-(3-Cyanophenyl)-1-methyl-4-{[(1R)-2,2,2-trifluoro-1-methylethyl]-sulfamoyl}-1H-pyrrole-2-carboxamide] | 360 nM | 120 nM | > 25 µM
22 | C[C@@H](NS(=O)(=O)c1cc(C(=O)Nc2cccc(C(F)(F)F)c2F)n(C)c1)C(F)(F)F [Compound 159, N-[2-Fluoro-3-(trifluoromethyl)phenyl]-1-methyl-4-{[(1R)-2,2,2-trifluoro-1-methylethyl]sulfamoyl}-1H-pyrrole-2-carboxamide] | 810 nM | 90 nM | > 25 µM
23 | C[C@@H](NS(=O)(=O)c1cc(C(=O)Nc2cccc(C#N)c2F)n(C)c1)C(F)(F)F [Compound 160, N-(3-Cyano-2-fluorophenyl)-1-methyl-4-{[(1R)-2,2,2-trifluoro-1-methylethyl]sulfamoyl}-1H-pyrrole-2-carboxamide] | 130 nM | 160 nM | > 25 µM
24 | Cn1cc(S(=O)(=O)NC2(C)COC2)cc1C(=O)Nc1ccc(F)c(C(C)(F)F)c1 [Compound 161, N-[3-(1,1-Difluoroethyl)-4-fluorophenyl]-1-methyl-4-[(3-methyloxetan-3-yl)sulfamoyl]-1H-pyrrole-2-carboxamide] | 910 nM | > 1000 nM | > 25 µM
25 | Cn1cc(S(=O)(=O)NC(C)(C)C)cc1C(=O)Nc1ccc(F)c(C(C)(F)F)c1 [Compound 162, 4-(tert-Butylsulfamoyl)-N-[3-(1,1-difluoroethyl)-4-fluorophenyl]-1-methyl-1H-pyrrole-2-carboxamide] | 890 nM | > 1000 nM | > 25 µM
26 | Cn1cc(S(=O)(=O)NC(C)(C)C(F)(F)F)cc1C(=O)Nc1cc(Cl)c(F)c(Cl)c1 [Compound 163, N-(3,5-Dichloro-4-fluorophenyl)-1-methyl-4-[(2,2,2-trifluoro-1,1-dimethylethyl)sulfamoyl]-1H-pyrrole-2-carboxamide] | 110 nM | 180 nM | 14.3 µM
27 | Cn1cc(S(=O)(=O)NC2CC(F)(F)C2)cc1C(=O)Nc1cc(F)c(F)c(Cl)c1 [Compound 164, N-(3-Chloro-4,5-difluorophenyl)-4-[(3,3-difluorocyclobutyl)sulfamoyl]-1-methyl-1H-pyrrole-2-carboxamide] | 130 nM | 130 nM | > 25 µM
